Assay results from US10016486B1, “Methods and compositions using AMPK activators for pharmacological prevention of chronic pain” (ARIZONA BOARD OF REGENTS ON BEHALF OF THE UNIVERSITY OF …, priority 2013, dated 2018).
“Also recorded” adds a separate entry of the source.

Key:
[1] = test system: AMPK; settings: independent of upstream kinase LKB1; Lee et al., 2011; read-out: EC50, stimulation of AMPK kinase activity through direct activation; cited from earlier work
[2] = test system: Male ICR mice; assay: Plantar incision model: acute mechanical hypersensitivity (paw withdrawal thresholds, von Frey filaments); type: in vivo
Procedure: (§1) Behavior testing: For the testing, animals were placed in acrylic boxes with wire mesh floors and allowed to habituate for approximately 1 h on all testing days. Paw withdrawal thresholds were measured using calibrated von Frey filaments (Stoelting, Wood Dale, Ill.) by stimulating the plantar aspect of left hind paw using the up-down method (Chaplan et al., 1994). Plantar incision and behavioral testing: Prior to surgery all animals were assessed for paw withdrawal thresholds. A mouse model of incisional pain was used for this study (Banik et al., 2006). […] Sham controls underwent the same procedure but without the incision. The skin was apposed with 2 sutures of […]. […] The paw withdrawal thresholds were again measured at 1 h, 3 h and 24 h following the PGE2 injection. Statistical Analysis and Data Presentation: Data are shown as means and the standard error of the mean (±SEM) of 6 animals (for behavioral studies). Graph plotting and statistical analysis used Graphpad Prism Version 5.03 (Graph Pad Software, Inc. San Diego, Calif., USA). Statistical evaluation was performed by one- or two-way analysis of variance (ANOVA), followed by appropriate post-hoc tests. The a priori level of significance at 95% confidence level was considered at p<0.05.

[3] = test system: Male ICR mice; assay: Plantar incision model: hyperalgesic priming precipitated by intraplantar PGE2 on day 14; type: in vivo
Procedure: as §1

[4] = general statement; cited from earlier work
[5] = test system: Male ICR mice; settings: local injection of resveratrol into the hind paw following plantar incision; previously demonstrated; cited from earlier work
[6] = test system: Male ICR mice; settings: local injection of resveratrol into the hind paw following plantar incision; previously demonstrated; cited from earlier work; remark: listed apart in the source
[7] = test system: ERK and mTOR signaling in sensory neurons; settings: time- and concentration-dependent; previously demonstrated; cited from earlier work
[8] = test system: Male ICR mice; assay: Wound healing and wound closure after plantar incision (H & E staining); settings: maximal doses (resveratrol 10 μg intraplantar, metformin 200 mg/kg i.p., OSU53 10 or 30 μg intraplantar); for wound size vs vehicle treated group: Day 3 after plantar incision; for wound closure: Day 7 after plantar incision
Procedure: Experimental animals: Male ICR mice (Harlan, 20-25 g) were used for the study.
Immunohistochemistry: To determine re-epithelialization, plantar skin was excised from the left hind paw of mice either 3 days or 7 days following plantar incision surgery. The skin was immediately cryoprotected and frozen in O.C.T compound and sectioned (20 μm) on cryostat. The sections were then fixed in formalin and immersed in 0.1% hematoxylin for 3 minutes, washed in tap water, then immersed in 0.1% eosin for 3 minutes, and dehydrated through graded ethanol (Protocol from University of Michigan Center for Organogenesis). Finally sections were coverslipped with Permount (Fisher, Pittsburgh, Pa.). The sections were imaged and the width between 2 epithelial edges was measured using Olympus BX51 microscope.

[9] = test system: neuropathic allodynia induced by peripheral nerve injury; settings: previously demonstrated; cited from earlier work
[10] = test system: translation regulation signaling pathways and nascent protein synthesis in injured nerves neurons; settings: previously demonstrated; cited from earlier work
[11] = OSU53 10 or 30 μg injected locally into the hind paw around the incision
[12] = metformin lower doses (30, 100, 150) intra-peritoneal for 4 days starting 2 days prior to surgery
[13] = metformin maximal dose 200 mg/kg intra-peritoneal for 4 days starting 2 days prior to surgery

Structure (SMILES): CC1(CN2C(=O)S/C(=C\c3ccc(NS(=O)(=O)c4ccc([N+](=O)[O-])c(C(F)(F)F)c4)cc3)C2=O)CCCCC1 [OSU53]
- EC50 [1]: 300 nM
- plantar incision-induced acute mechanical hypersensitivity [2, 11]: significantly blocked; also recorded: dose-relatedly blocked
- hyperalgesic priming after PGE2 injection on day 14 [3, 11]: significantly blocked; also recorded: dose-relatedly blocked

Structure (SMILES): Oc1ccc(C=Cc2cc(O)cc(O)c2)cc1 [resveratrol]
- bioavailability [4]: lacks bioavailability
- plantar incision-induced acute hypersensitivity ([2]; resveratrol alone, 3 μg injected in hind paw around incision on day of surgery and 24 hrs post-surgery (sub-efficacious dose)): blunted acute hypersensitivity compared to vehicle treated mice but the effect was not significant
- plantar incision-induced acute mechanical hypersensitivity ([2]; topical resveratrol cream (2 mg/ml in PEG), 100 μg, applied once immediately following incision, vs vehicle): blunted; also recorded: blunted hypersensitivity though not significant
- plantar incision-induced acute mechanical hypersensitivity ([2]; topical resveratrol cream, 100 μg, applied twice: immediately following incision and 24 hrs following incision, vs vehicle): significantly blocked; also recorded: significantly attenuated
- hyperalgesic priming induced by incision [5]: attenuates; also recorded: dose-relatedly reverses
- incision-mediated mechanical hypersensitivity [6]: attenuates; also recorded: dose-relatedly reverses
- plantar incision-induced hyperalgesic priming precipitated by PGE2 ([3]; topical resveratrol 100 μg at the time of incision and 1 day post incision, PGE2 100 ng on day 14): significantly blocked; also recorded: prevented the development of hyperalgesic priming
- plantar incision-induced hyperalgesic priming precipitated by PGE2 ([3]; topical resveratrol 100 μg once immediately following incision, PGE2 100 ng on day 14): abolished; also recorded: prevented the development of hyperalgesic priming
- ERK and mTOR signaling in sensory neurons [7]: profoundly inhibits
- wound size vs vehicle treated group [8]: no differences
- wound closure [8]: completely closed

Structure (SMILES): N#Cc1c(O)c2c(-c3ccc(-c4ccccc4O)cc3)csc2[nH]c1=O [A-769662]
- plantar incision-induced acute mechanical hypersensitivity ([2]; A-769662 30 mg/kg intra-peritoneal for 4 days starting 2 days prior to surgery, 30 mg/kg): did not block; also recorded: not effective
- neuropathic allodynia induced by peripheral nerve injury [9]: resolution of neuropathic allodynia
- translation regulation signaling pathways and nascent protein synthesis in injured nerves neurons [10]: inhibited
- hyperalgesic priming following PGE2 injection on day 14 ([3]; A-769662 30 mg/kg intra-peritoneal for 4 days starting 2 days prior to surgery): significantly blocked

Structure (SMILES): CN(C)C(=N)N=C(N)N [metformin]
- plantar incision-induced acute hypersensitivity ([2]; metformin 30, 100, 150 or 200 mg/kg intra-peritoneal for 4 days (FIG. 2 legend, all doses together)): significantly blocked
- plantar incision-induced acute hypersensitivity ([2]; metformin alone, 150 μg intra-peritoneal for 4 days starting 2 days prior to surgery (sub-efficacious dose)): blunted acute hypersensitivity compared to vehicle treated mice but the effect was not significant
- plantar incision-induced acute mechanical hypersensitivity [2, 12]: not effective
- plantar incision-induced acute mechanical hypersensitivity [2, 13]: prevented
- neuropathic allodynia induced by peripheral nerve injury [9]: resolution of neuropathic allodynia
- translation regulation signaling pathways and nascent protein synthesis in injured nerves neurons [10]: inhibited
- plantar incision-induced hyperalgesic priming precipitated by PGE2 ([3]; metformin 30, 100, 150 or 200 mg/kg intra-peritoneal for 4 days (FIG. 3 legend, all doses together)): significantly blocked
- hyperalgesic priming following PGE2 injection on day 14 [3, 12]: significantly blocked
- hyperalgesic priming following PGE2 injection on day 14 [3, 13]: prevented
- wound size vs vehicle treated group [8]: No differences
- wound closure [8]: completely closed
